Assay results: ChEMBL document CHEMBL3885881, “DrugMatrix”

Species on record: Rattus norvegicus
Assay: DrugMatrix - Regimen: Daily Repeat
Format: toxicity, organism-based, Sprague-Dawley
Design: regimen Daily Repeat, gender Male, age 6-8 weeks
Settings: in vivo, po, route oral GAVAGE, vehicle 100 % WATER; for ABSOLUTE BASOPHIL / ABSOLUTE EOSINOPHIL / ABSOLUTE LYMPHOCYTE / ABSOLUTE MONOCYTE / ABSOLUTE SEGMENTED NEUTROPHIL / BASOPHIL / EOSINOPHIL / ERYTHROCYTE COUNT / HEMATOCRIT / HEMOGLOBIN / LEUKOCYTE COUNT / LYMPHOCYTE / MEAN CORPUSCULAR HEMOGLOBIN / MEAN CORPUSCULAR HEMOGLOBIN CONCENTRATION / MEAN CORPUSCULAR VOLUME / MONOCYTE / NEUTROPHIL / NUCLEATED RED BLOOD CELLS / PLATELET COUNT: tissue Blood; for ALANINE AMINOTRANSFERASE / ALBUMIN / ALKALINE PHOSPHATASE / ASPARTATE AMINOTRANSFERASE / BLOOD UREA NITROGEN / CARBON DIOXIDE / CHLORIDE / CHOLESTEROL / CREATINE PHOSPHOKINASE / CREATININE / GLUCOSE / LACTATE DEHYDROGENASE / LIPASE / PHOSPHORUS / POTASSIUM / SODIUM / TOTAL BILIRUBIN / TOTAL PROTEIN / URIC ACID: tissue Plasma
[1] = 10 mg/kg, 120 h, dose level Low, time 5 day
[2] = 900 mg/kg, 72 h, dose level High, time 3 day
[3] = 900 mg/kg, 120 h, dose level High, time 5 day

SMILES: CC(C)(C)NC[C@H](O)COc1nsnc1N1CCOCC1 [TIMOLOL]
- ABSOLUTE BASOPHIL [1]: 0 CELLS/uL
- ABSOLUTE EOSINOPHIL [1]: 115.33 CELLS/uL
- ABSOLUTE LYMPHOCYTE [1]: 10711.67 CELLS/uL
- ABSOLUTE MONOCYTE [1]: 97.67 CELLS/uL
- ABSOLUTE SEGMENTED NEUTROPHIL [1]: 1075.33 CELLS/uL
- BASOPHIL [1]: 0%
- EOSINOPHIL [1]: 0.67%
- ERYTHROCYTE COUNT [1]: 5.23 x10E6/uL
- HEMATOCRIT [1]: 33.1%
- HEMOGLOBIN [1]: 12.83 G/DL
- LEUKOCYTE COUNT [1]: 12 x10E3/uL
- LYMPHOCYTE [1]: 90%
- MEAN CORPUSCULAR HEMOGLOBIN [1]: 24.53 pg
- MEAN CORPUSCULAR HEMOGLOBIN CONCENTRATION [1]: 38.77 G/DL
- MEAN CORPUSCULAR VOLUME [1]: 63.27 fL
- MONOCYTE [1]: 0.67%
- NEUTROPHIL [1]: 8.67%
- NUCLEATED RED BLOOD CELLS [1]: 0 /100WBC
- PLATELET COUNT [1]: 1050 x10E3/uL
- ALANINE AMINOTRANSFERASE [1]: 51 u/L
- ALBUMIN [1]: 4.03 G/DL
- ALKALINE PHOSPHATASE [1]: 411.33 u/L
- ASPARTATE AMINOTRANSFERASE [1]: 79.33 u/L
- BLOOD UREA NITROGEN [1]: 15 mg/dL
- CARBON DIOXIDE [1]: 29 mmol/L
- CHLORIDE [1]: 101.33 MEQ/L
- CHOLESTEROL [1]: 71 mg/dL
- CREATINE PHOSPHOKINASE [1]: 333 u/L
- CREATININE [1]: 0.16 mg/dL
- GLUCOSE [1]: 180.33 mg/dL
- LACTATE DEHYDROGENASE [1]: 129.33 u/L
- LIPASE [1]: 9 u/L
- PHOSPHORUS [1]: 11.93 mg/dL
- POTASSIUM [1]: 5.38 MEQ/L
- SODIUM [1]: 144.33 MEQ/L
- TOTAL BILIRUBIN [1]: 0.13 mg/dL
- TOTAL PROTEIN [1]: 6.1 G/DL
- URIC ACID [1]: 0.73 mg/dL
- ABSOLUTE BASOPHIL [2]: 0 CELLS/uL
- ABSOLUTE EOSINOPHIL [2]: 0 CELLS/uL
- ABSOLUTE LYMPHOCYTE [2]: 11176.67 CELLS/uL
- ABSOLUTE MONOCYTE [2]: 84.33 CELLS/uL
- ABSOLUTE SEGMENTED NEUTROPHIL [2]: 872.33 CELLS/uL
- BASOPHIL [2]: 0%
- EOSINOPHIL [2]: 0%
- ERYTHROCYTE COUNT [2]: 5.11 x10E6/uL
- HEMATOCRIT [2]: 32.53%
- HEMOGLOBIN [2]: 12.93 G/DL
- LEUKOCYTE COUNT [2]: 12.13 x10E3/uL
- LYMPHOCYTE [2]: 92%
- MEAN CORPUSCULAR HEMOGLOBIN [2]: 25.27 pg
- MEAN CORPUSCULAR HEMOGLOBIN CONCENTRATION [2]: 39.77 G/DL
- MEAN CORPUSCULAR VOLUME [2]: 63.67 fL
- MONOCYTE [2]: 0.67%
- NEUTROPHIL [2]: 7.33%
- NUCLEATED RED BLOOD CELLS [2]: 0.33 /100WBC
- PLATELET COUNT [2]: 1179.33 x10E3/uL
- ALANINE AMINOTRANSFERASE [2]: 48 u/L
- ALBUMIN [2]: 3.73 G/DL
- ALKALINE PHOSPHATASE [2]: 389 u/L
- ASPARTATE AMINOTRANSFERASE [2]: 98 u/L
- BLOOD UREA NITROGEN [2]: 12.67 mg/dL
- CARBON DIOXIDE [2]: 29.33 mmol/L
- CHLORIDE [2]: 101.67 MEQ/L
- CHOLESTEROL [2]: 77.33 mg/dL
- CREATINE PHOSPHOKINASE [2]: 901.67 u/L
- CREATININE [2]: 0.28 mg/dL
- GLUCOSE [2]: 148.67 mg/dL
- LACTATE DEHYDROGENASE [2]: 189.33 u/L
- LIPASE [2]: 11.33 u/L
- PHOSPHORUS [2]: 13.97 mg/dL
- POTASSIUM [2]: 7.3 MEQ/L
- SODIUM [2]: 143.43 MEQ/L
- TOTAL BILIRUBIN [2]: 0.17 mg/dL
- TOTAL PROTEIN [2]: 5.43 G/DL
- URIC ACID [2]: 1.67 mg/dL
- ABSOLUTE BASOPHIL [3]: 0 CELLS/uL
- ABSOLUTE EOSINOPHIL [3]: 114.33 CELLS/uL
- ABSOLUTE LYMPHOCYTE [3]: 9946 CELLS/uL
- ABSOLUTE MONOCYTE [3]: 153 CELLS/uL
- ABSOLUTE SEGMENTED NEUTROPHIL [3]: 1220 CELLS/uL
- BASOPHIL [3]: 0%
- EOSINOPHIL [3]: 1%
- ERYTHROCYTE COUNT [3]: 5.75 x10E6/uL
- HEMATOCRIT [3]: 36.17%
- HEMOGLOBIN [3]: 13.83 G/DL
- LEUKOCYTE COUNT [3]: 11.43 x10E3/uL
- LYMPHOCYTE [3]: 87%
- MEAN CORPUSCULAR HEMOGLOBIN [3]: 24.07 pg
- MEAN CORPUSCULAR HEMOGLOBIN CONCENTRATION [3]: 38.27 G/DL
- MEAN CORPUSCULAR VOLUME [3]: 62.97 fL
- MONOCYTE [3]: 1.33%
- NEUTROPHIL [3]: 10.67%
- NUCLEATED RED BLOOD CELLS [3]: 0 /100WBC
- PLATELET COUNT [3]: 1330.33 x10E3/uL
- ALANINE AMINOTRANSFERASE [3]: 48 u/L
- ALBUMIN [3]: 3.63 G/DL
- ALKALINE PHOSPHATASE [3]: 402.67 u/L
- ASPARTATE AMINOTRANSFERASE [3]: 107.33 u/L
- BLOOD UREA NITROGEN [3]: 14.33 mg/dL
- CARBON DIOXIDE [3]: 23.67 mmol/L
- CHLORIDE [3]: 103.67 MEQ/L
- CHOLESTEROL [3]: 78.67 mg/dL
- CREATINE PHOSPHOKINASE [3]: 707.33 u/L
- CREATININE [3]: 0.14 mg/dL
- GLUCOSE [3]: 142 mg/dL
- LACTATE DEHYDROGENASE [3]: 252.33 u/L
- LIPASE [3]: 10 u/L
- PHOSPHORUS [3]: 11.6 mg/dL
- POTASSIUM [3]: 6.41 MEQ/L
- SODIUM [3]: 144.37 MEQ/L
- TOTAL BILIRUBIN [3]: 0.17 mg/dL
- TOTAL PROTEIN [3]: 5.27 G/DL
- URIC ACID [3]: 1.5 mg/dL
